Results from patent US12077503B2, “Substituted cyclic amides and their use as herbicides” (FMC CORPORATION, priority 2015, dated 2024).

Key:
Type in all cases: in vivo
[1] = system: giant foxtail (Setaria faberi); test: Test G Post-Emergence Protocol; conditions: Setaria faberi, post-emergence, 312 h
Summary of the method: (§1)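 Seedlings grown 8 days in soil in a glasshouse (24/16 °C day/night, 14 h light, 65% humidity) were sprayed post-emergence with compound in acetone/water 50:50 plus 0.5% Tween 20 at 15.625, 62.5 or 250 g/ha. Damage was scored after 13 days on a 0–100 scale (100 = total damage).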

[2] = system: ivy-leaved morning glory (Ipomoea hederacea); test: Test G Post-Emergence Protocol; conditions: Ipomoea, post-emergence, 312 h
Summary of the method: as §1

[3] = system: redroot pigweed (Amaranthus retroflexus); test: Test G Post-Emergence Protocol; conditions: Amaranthus retroflexus, post-emergence, 312 h
Summary of the method: as §1

[4] = system: velvetleaf (Abutilon theophrasti); test: Test G Post-Emergence Protocol; conditions: Abutilon theophrasti, post-emergence, 312 h
Summary of the method: as §1

[5] = system: barnyardgrass (Echinochloa crus-galli); test: Test G Post-Emergence Protocol; conditions: Echinochloa crus-galli, post-emergence, 312 h
Summary of the method: as §1

corn (Zea mays) [6] = test: Test G Post-Emergence Protocol; conditions: Zea mays, post-emergence, 312 h
Summary of the method: as §1

[7] = system: giant foxtail (Setaria faberi); test: Test G Pre-Emergence Protocol; conditions: Setaria faberi, pre-emergence, 312 h, evaluated after 13 days
Summary of the method: (§2)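 Under a 24/16° C day/night regime with 14 h light and 65% humidity, sown pots were sprayed after one day with compound (15.625, 62.5 or 250 g/ha; 50:50 acetone/water, 0.5% Tween 20). Damage was assessed visually 13 days later, 0 to 100.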

[8] = system: ivy-leaved morning glory (Ipomoea hederacea); test: Test G Pre-Emergence Protocol; conditions: Ipomoea, pre-emergence, 312 h, evaluated after 13 days
Summary of the method: as §2

[9] = system: redroot pigweed (Amaranthus retroflexus); test: Test G Pre-Emergence Protocol; conditions: Amaranthus retroflexus, pre-emergence, 312 h, evaluated after 13 days
Summary of the method: as §2

[10] = system: velvetleaf (Abutilon theophrasti); test: Test G Pre-Emergence Protocol; conditions: Abutilon theophrasti, pre-emergence, 312 h, evaluated after 13 days
Summary of the method: as §2

[11] = system: barnyardgrass (Echinochloa crus-galli); test: Test G Pre-Emergence Protocol; conditions: Echinochloa crus-galli, pre-emergence, 312 h, evaluated after 13 days
Summary of the method: as §2

corn (Zea mays) [12] = test: Test G Pre-Emergence Protocol; conditions: Zea mays, pre-emergence, 312 h, evaluated after 13 days
Summary of the method: as §2

CN1C[C@@H](c2ccc(C(F)(F)F)cc2)[C@H](C(=O)Nc2nnc(C(F)(F)F)[nH]2)C1=O (racemic) [Compound 1550]
pest or weed control at 15.625 g/ha ([1]; 15.625 g ai/ha, evaluated after 13 days (100=total damage to plant; 0=no damage to plant), read-out: Foxtail, Giant damage rating): 0% | pest or weed control at 62.5 g/ha ([1]; 62.5 g ai/ha, evaluated after 13 days, read-out: Foxtail, Giant damage rating (100=total damage to plant; 0=no damage to plant)): 0% | pest or weed control at 250 g/ha ([1]; 250 g ai/ha, evaluated after 13 days, read-out: damage to plant, Foxtail, Giant (100=total damage to plant; 0=no damage to plant)): 0% | pest or weed control at 15.625 g/ha ([2]; 15.625 g ai/ha, evaluated after 13 days (100=total damage to plant; 0=no damage to plant), read-out: Morningglory, Ivy-leaved damage rating): 0% | pest or weed control at 62.5 g/ha ([2]; 62.5 g ai/ha, evaluated after 13 days, read-out: Morningglory, Ivy-leaved damage rating (100=total damage to plant; 0=no damage to plant)): 0% | pest or weed control at 250 g/ha ([2]; 250 g ai/ha, evaluated after 13 days, read-out: damage to plant, Morningglory, Ivy-leaved (100=total damage to plant; 0=no damage to plant)): 0% | pest or weed control at 15.625 g/ha ([3]; 15.625 g ai/ha, evaluated after 13 days (100=total damage to plant; 0=no damage to plant), read-out: Pigweed, Redroot damage rating): 0% | pest or weed control at 62.5 g/ha ([3]; 62.5 g ai/ha, evaluated after 13 days, read-out: Pigweed, Redroot damage rating (100=total damage to plant; 0=no damage to plant)): 30% | pest or weed control at 250 g/ha ([3]; 250 g ai/ha, evaluated after 13 days, read-out: damage to plant, Pigweed, Redroot (100=total damage to plant; 0=no damage to plant)): 40% | pest or weed control at 15.625 g/ha ([4]; 15.625 g ai/ha, evaluated after 13 days (100=total damage to plant; 0=no damage to plant), read-out: Velvetleaf damage rating): 0% | pest or weed control at 62.5 g/ha ([4]; 62.5 g ai/ha, evaluated after 13 days, read-out: Velvetleaf damage rating (100=total damage to plant; 0=no damage to plant)): 0% | pest or weed control at 250 g/ha ([4]; 250 g ai/ha, evaluated after 13 days, read-out: damage to plant, Velvetleaf (100=total damage to plant; 0=no damage to plant)): 0% | pest or weed control at 15.625 g/ha ([5]; 15.625 g ai/ha, evaluated after 13 days (100=total damage to plant; 0=no damage to plant), read-out: Barnyardgrass damage rating): 0% | pest or weed control at 62.5 g/ha ([5]; 62.5 g ai/ha, evaluated after 13 days, read-out: Barnyardgrass damage rating (100=total damage to plant; 0=no damage to plant)): 0% | pest or weed control at 250 g/ha ([5]; 250 g ai/ha, evaluated after 13 days, read-out: damage to plant, Barnyardgrass (100=total damage to plant; 0=no damage to plant)): 0% | plant injury at 15.625 g/ha (corn (Zea mays) [6]; 15.625 g ai/ha, evaluated after 13 days (100=total damage to plant; 0=no damage to plant), read-out: Corn damage rating): 0% | plant injury at 62.5 g/ha (corn (Zea mays) [6]; 62.5 g ai/ha, evaluated after 13 days, read-out: Corn damage rating (100=total damage to plant; 0=no damage to plant)): 10% | plant injury at 250 g/ha (corn (Zea mays) [6]; 250 g ai/ha, evaluated after 13 days, read-out: damage to plant, Corn (100=total damage to plant; 0=no damage to plant)): 30% | pest or weed control at 15.625 g/ha ([7]; 15.625 g ai/ha, read-out: Foxtail, Giant damage rating (100=total damage to plant; 0=no damage to plant)): 0% | pest or weed control at 62.5 g/ha ([7]; 62.5 g ai/ha, 100=total damage to plant, 0=no damage to plant, read-out: plant damage rating, Foxtail, Giant): 0% | pest or weed control at 250 g/ha ([7]; 250 g ai/ha, read-out: Foxtail, Giant damage rating (100=total damage to plant; 0=no damage to plant)): 0% | pest or weed control at 15.625 g/ha ([8]; 15.625 g ai/ha, read-out: Morning-glory, Ivy-leaved damage rating (100=total damage to plant; 0=no damage to plant)): 0% | pest or weed control at 62.5 g/ha ([8]; 62.5 g ai/ha, 100=total damage to plant, 0=no damage to plant, read-out: plant damage rating, Morningglory, Ivy-leaved): 0% | pest or weed control at 250 g/ha ([8]; 250 g ai/ha, read-out: Morningglory, Ivy-leaved damage rating (100=total damage to plant; 0=no damage to plant)): 0% | pest or weed control at 15.625 g/ha ([9]; 15.625 g ai/ha, read-out: Pigweed, Redroot damage rating (100=total damage to plant; 0=no damage to plant)): 0% | pest or weed control at 62.5 g/ha ([9]; 62.5 g ai/ha, 100=total damage to plant, 0=no damage to plant, read-out: plant damage rating, Pigweed, Redroot): 0% | pest or weed control at 250 g/ha ([9]; 250 g ai/ha, read-out: Pigweed, Redroot damage rating (100=total damage to plant; 0=no damage to plant)): 0% | pest or weed control at 15.625 g/ha ([10]; 15.625 g ai/ha, read-out: Velvetleaf damage rating (100=total damage to plant; 0=no damage to plant)): 0% | pest or weed control at 62.5 g/ha ([10]; 62.5 g ai/ha, 100=total damage to plant, 0=no damage to plant, read-out: plant damage rating, Velvetleaf): 0% | pest or weed control at 250 g/ha ([10]; 250 g ai/ha, read-out: Velvetleaf damage rating (100=total damage to plant; 0=no damage to plant)): 0% | pest or weed control at 15.625 g/ha ([11]; 15.625 g ai/ha, read-out: Barnyard grass damage rating (100=total damage to plant; 0=no damage to plant)): 0% | pest or weed control at 62.5 g/ha ([11]; 62.5 g ai/ha, 100=total damage to plant, 0=no damage to plant, read-out: plant damage rating, Barnyardgrass): 0% | pest or weed control at 250 g/ha ([11]; 250 g ai/ha, read-out: Barnyardgrass damage rating (100=total damage to plant; 0=no damage to plant)): 0% | plant injury at 15.625 g/ha (corn (Zea mays) [12]; 15.625 g ai/ha, read-out: Corn damage rating (100=total damage to plant; 0=no damage to plant)): 0% | plant injury at 62.5 g/ha (corn (Zea mays) [12]; 62.5 g ai/ha, 100=total damage to plant, 0=no damage to plant, read-out: plant damage rating, Corn): 0% | plant injury at 250 g/ha (corn (Zea mays) [12]; 250 g ai/ha, read-out: Corn damage rating (100=total damage to plant; 0=no damage to plant)): 0%
